Reference: ChEMBL document CHEMBL4507269, “Data for DCP probe BAY-386” (2021)

Experiments:
[1] = tested on: Mast/stem cell growth factor receptor Kit (Homo sapiens), P10721 [D816V]; settings: Compound concentration 1000.0 nM
[2] = tested on: Epidermal growth factor receptor (Homo sapiens), P00533 [UNDEFINED MUTATION]; settings: Compound concentration 1000.0 nM
[3] = molecular target: Casein kinase I isoform epsilon (Homo sapiens) (UniProt P49674); settings: Compound concentration 1000.0 nM
[4] = molecular target: Casein kinase II subunit alpha (Homo sapiens) (UniProt P68400); settings: Compound concentration 1000.0 nM
[5] = molecular target: D(1A) dopamine receptor (Homo sapiens) (UniProt P21728); assay: D1 (h) Eurofins-Cerep Cellular and Nuclear Receptor Functional Assays; settings: Compound concentration 10.0 uM
[6] = molecular target: Wee1-like protein kinase 2 (Homo sapiens) (UniProt P0C1S8); settings: Compound concentration 1000.0 nM
[7] = molecular target: MAP kinase-interacting serine/threonine-protein kinase 2 (Homo sapiens) (UniProt Q9HBH9); settings: Compound concentration 1000.0 nM
[8] = molecular target: Mitogen-activated protein kinase kinase kinase 10 (Homo sapiens) (UniProt Q02779); settings: Compound concentration 1000.0 nM
[9] = tested on: Receptor-type tyrosine-protein kinase FLT3 (Homo sapiens), P36888 [N841I]; settings: Compound concentration 1000.0 nM
[10] = molecular target: Tyrosine-protein kinase Fgr (Homo sapiens) (UniProt P09769); settings: Compound concentration 1000.0 nM
[11] = molecular target: Proto-oncogene tyrosine-protein kinase ROS (Homo sapiens) (UniProt P08922); settings: Compound concentration 1000.0 nM
[12] = molecular target: Serine/threonine-protein kinase PLK3 (Homo sapiens) (UniProt Q9H4B4); settings: Compound concentration 1000.0 nM
[13] = molecular target: D(2) dopamine receptor (Homo sapiens) (UniProt P14416); assay: D2s (h) Eurofins-Cerep Cellular and Nuclear Receptor Functional Assays; settings: Compound concentration 10.0 uM
[14] = molecular target: Ribosomal protein S6 kinase alpha-2 (Homo sapiens) (UniProt Q15349); settings: Compound concentration 1000.0 nM
[15] = molecular target: Serine/threonine-protein kinase Nek5 (Homo sapiens) (UniProt Q6P3R8); settings: Compound concentration 1000.0 nM
[16] = molecular target: Ribosomal protein S6 kinase alpha-3 (Homo sapiens) (UniProt P51812); settings: Compound concentration 1000.0 nM
[17] = molecular target: Casein kinase I isoform gamma-2 (Homo sapiens) (UniProt P78368); settings: Compound concentration 1000.0 nM
[18] = molecular target: cGMP-dependent protein kinase 2 (Homo sapiens) (UniProt Q13237); settings: Compound concentration 1000.0 nM
[19] = molecular target: D(3) dopamine receptor (Homo sapiens) (UniProt P35462); settings: Compound concentration 10.0 uM
[20] = molecular target: Cyclin-dependent kinase 5 (Homo sapiens) (UniProt Q00535); settings: Compound concentration 1000.0 nM
[21] = molecular target: Platelet-derived growth factor receptor alpha (Homo sapiens) (UniProt P16234); settings: Compound concentration 1000.0 nM
[22] = tested on: Phosphatidylinositol 4,5-bisphosphate 3-kinase catalytic subunit alpha isoform (Homo sapiens), P42336 [E542K]; settings: Compound concentration 1000.0 nM
[23] = molecular target: Serine/threonine-protein kinase BRSK1 (Homo sapiens) (UniProt Q8TDC3); settings: Compound concentration 1000.0 nM
[24] = molecular target: Activin receptor type-2A (Homo sapiens) (UniProt P27037); settings: Compound concentration 1000.0 nM
[25] = molecular target: Sigma intracellular receptor 2 (Homo sapiens, UniProt Q5BJF2); settings: Compound concentration 10.0 uM
[26] = molecular target: Homeodomain-interacting protein kinase 4 (Homo sapiens) (UniProt Q8NE63); settings: Compound concentration 1000.0 nM
[27] = molecular target: Serine/threonine-protein kinase Nek4 (Homo sapiens) (UniProt P51957); settings: Compound concentration 1000.0 nM
[28] = molecular target: Phosphatidylinositol 4-phosphate 3-kinase C2 domain-containing subunit beta (Homo sapiens) (UniProt O00750); settings: Compound concentration 1000.0 nM
[29] = molecular target: Cyclin-G-associated kinase (Homo sapiens) (UniProt O14976); settings: Compound concentration 1000.0 nM
[30] = molecular target: Casein kinase I isoform gamma-3 (Homo sapiens) (UniProt Q9Y6M4); settings: Compound concentration 1000.0 nM
[31] = tested on: Phosphatidylinositol 4,5-bisphosphate 3-kinase catalytic subunit alpha isoform (Homo sapiens), P42336 [E545A]; settings: Compound concentration 1000.0 nM
[32] = molecular target: Protein kinase C delta type (Homo sapiens) (UniProt Q05655); settings: Compound concentration 1000.0 nM
[33] = molecular target: Beta-2 adrenergic receptor (Homo sapiens) (UniProt P07550); assay: beta2 (h) Eurofins-Cerep Cellular and Nuclear Receptor Functional Assays; settings: Compound concentration 10.0 uM
[34] = molecular target: Hepatocyte growth factor receptor (Homo sapiens) (UniProt P08581); settings: Compound concentration 1000.0 nM
[35] = molecular target: SRSF protein kinase 1 (Homo sapiens) (UniProt Q96SB4); settings: Compound concentration 1000.0 nM
[36] = molecular target: Ephrin type-A receptor 8 (Homo sapiens) (UniProt P29322); settings: Compound concentration 1000.0 nM
[37] = molecular target: Serine/threonine-protein kinase tousled-like 2 (Homo sapiens) (UniProt Q86UE8); settings: Compound concentration 1000.0 nM
[38] = tested on: Mast/stem cell growth factor receptor Kit (Homo sapiens), P10721 [A829P]; settings: Compound concentration 1000.0 nM
[39] = molecular target: Serine/threonine-protein kinase MARK1 (Homo sapiens) (UniProt Q9P0L2); settings: Compound concentration 1000.0 nM
[40] = molecular target: Tyrosine-protein kinase JAK1 (Homo sapiens) (UniProt P23458); settings: Compound concentration 1000.0 nM
[41] = molecular target: Homeodomain-interacting protein kinase 2 (Homo sapiens) (UniProt Q9H2X6); settings: Compound concentration 1000.0 nM
[42] = molecular target: Tyrosine-protein kinase JAK2 (Homo sapiens) (UniProt O60674); settings: Compound concentration 1000.0 nM
[43] = molecular target: Bone morphogenetic protein receptor type-1A (Homo sapiens) (UniProt P36894); settings: Compound concentration 1000.0 nM
[44] = molecular target: 5-hydroxytryptamine receptor 6 (Homo sapiens) (UniProt P50406); settings: Compound concentration 10.0 uM

D(2) dopamine receptor (Homo sapiens), sequence (P14416 whole entry): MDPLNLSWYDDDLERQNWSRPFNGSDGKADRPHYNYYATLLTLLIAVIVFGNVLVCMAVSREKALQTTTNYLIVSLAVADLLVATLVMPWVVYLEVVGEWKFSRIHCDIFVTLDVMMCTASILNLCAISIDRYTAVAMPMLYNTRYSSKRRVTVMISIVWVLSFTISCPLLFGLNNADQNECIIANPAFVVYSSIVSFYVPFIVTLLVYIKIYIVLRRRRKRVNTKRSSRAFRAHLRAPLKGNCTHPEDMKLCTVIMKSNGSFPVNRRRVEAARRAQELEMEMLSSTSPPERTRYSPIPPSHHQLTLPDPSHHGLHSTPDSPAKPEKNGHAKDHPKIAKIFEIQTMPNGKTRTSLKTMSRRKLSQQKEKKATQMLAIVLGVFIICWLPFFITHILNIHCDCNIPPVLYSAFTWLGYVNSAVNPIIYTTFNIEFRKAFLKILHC
D(1A) dopamine receptor (Homo sapiens), sequence (P21728 whole entry): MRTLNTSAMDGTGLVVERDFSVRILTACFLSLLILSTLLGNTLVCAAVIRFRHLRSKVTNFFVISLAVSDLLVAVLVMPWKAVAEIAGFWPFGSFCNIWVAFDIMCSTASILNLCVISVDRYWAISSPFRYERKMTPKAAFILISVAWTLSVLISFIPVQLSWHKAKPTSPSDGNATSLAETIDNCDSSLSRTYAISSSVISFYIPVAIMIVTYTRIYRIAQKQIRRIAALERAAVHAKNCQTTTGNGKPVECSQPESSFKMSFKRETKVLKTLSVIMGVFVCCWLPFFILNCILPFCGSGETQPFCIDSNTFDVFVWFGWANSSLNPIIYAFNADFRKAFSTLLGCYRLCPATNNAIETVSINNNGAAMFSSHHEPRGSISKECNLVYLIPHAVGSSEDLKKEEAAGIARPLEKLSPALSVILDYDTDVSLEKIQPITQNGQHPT
Beta-2 adrenergic receptor (Homo sapiens), sequence (P07550 whole entry, looked up): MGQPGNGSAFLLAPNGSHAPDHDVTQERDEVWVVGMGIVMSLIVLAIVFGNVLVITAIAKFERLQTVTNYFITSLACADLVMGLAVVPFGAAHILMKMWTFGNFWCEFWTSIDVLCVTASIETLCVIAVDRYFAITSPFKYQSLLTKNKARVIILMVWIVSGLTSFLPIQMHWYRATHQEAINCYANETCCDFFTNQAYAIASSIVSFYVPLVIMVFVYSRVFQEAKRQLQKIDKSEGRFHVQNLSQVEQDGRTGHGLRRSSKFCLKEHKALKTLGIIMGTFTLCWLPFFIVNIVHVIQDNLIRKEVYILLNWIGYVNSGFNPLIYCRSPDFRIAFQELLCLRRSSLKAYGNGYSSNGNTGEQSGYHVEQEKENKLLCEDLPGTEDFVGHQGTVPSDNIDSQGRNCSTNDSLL
Phosphatidylinositol 4,5-bisphosphate 3-kinase catalytic subunit alpha isoform (Homo sapiens), P42336 [E545A], sequence (P42336 whole entry E545A, canonical isoform): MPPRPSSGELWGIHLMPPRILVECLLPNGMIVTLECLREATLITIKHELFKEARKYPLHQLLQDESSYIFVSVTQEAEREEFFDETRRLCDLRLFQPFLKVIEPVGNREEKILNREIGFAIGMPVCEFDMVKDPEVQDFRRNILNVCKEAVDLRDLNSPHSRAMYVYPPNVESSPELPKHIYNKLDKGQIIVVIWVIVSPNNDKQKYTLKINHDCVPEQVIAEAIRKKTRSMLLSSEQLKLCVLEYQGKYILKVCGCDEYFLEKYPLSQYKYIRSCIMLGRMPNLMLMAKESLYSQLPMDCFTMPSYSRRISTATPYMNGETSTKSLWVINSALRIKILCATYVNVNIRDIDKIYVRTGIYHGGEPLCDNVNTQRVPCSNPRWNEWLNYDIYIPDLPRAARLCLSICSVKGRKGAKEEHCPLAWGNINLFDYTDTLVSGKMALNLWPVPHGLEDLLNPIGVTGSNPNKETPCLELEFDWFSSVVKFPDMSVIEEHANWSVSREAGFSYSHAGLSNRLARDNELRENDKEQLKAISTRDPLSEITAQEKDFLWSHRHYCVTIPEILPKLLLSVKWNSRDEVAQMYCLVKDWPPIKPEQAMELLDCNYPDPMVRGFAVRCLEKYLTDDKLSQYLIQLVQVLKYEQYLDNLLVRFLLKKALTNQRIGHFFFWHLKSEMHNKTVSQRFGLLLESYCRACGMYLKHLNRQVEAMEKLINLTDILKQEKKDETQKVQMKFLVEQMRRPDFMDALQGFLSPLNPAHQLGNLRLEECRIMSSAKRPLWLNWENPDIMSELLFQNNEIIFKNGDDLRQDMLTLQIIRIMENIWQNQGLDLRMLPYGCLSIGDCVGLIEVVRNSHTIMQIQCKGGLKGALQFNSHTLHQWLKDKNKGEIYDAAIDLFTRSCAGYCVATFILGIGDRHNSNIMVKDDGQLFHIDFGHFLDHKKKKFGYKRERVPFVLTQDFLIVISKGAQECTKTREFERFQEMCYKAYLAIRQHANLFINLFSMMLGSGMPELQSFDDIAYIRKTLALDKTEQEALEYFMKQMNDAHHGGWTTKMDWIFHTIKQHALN
Phosphatidylinositol 4,5-bisphosphate 3-kinase catalytic subunit alpha isoform (Homo sapiens), P42336 [E542K], sequence (P42336 whole entry E542K, canonical isoform): as the sequence (P42336 whole entry E545A, canonical isoform) above, with E542K, A545E counted along it
MAP kinase-interacting serine/threonine-protein kinase 2 (Homo sapiens), sequence (Q9HBH9 whole entry, looked up): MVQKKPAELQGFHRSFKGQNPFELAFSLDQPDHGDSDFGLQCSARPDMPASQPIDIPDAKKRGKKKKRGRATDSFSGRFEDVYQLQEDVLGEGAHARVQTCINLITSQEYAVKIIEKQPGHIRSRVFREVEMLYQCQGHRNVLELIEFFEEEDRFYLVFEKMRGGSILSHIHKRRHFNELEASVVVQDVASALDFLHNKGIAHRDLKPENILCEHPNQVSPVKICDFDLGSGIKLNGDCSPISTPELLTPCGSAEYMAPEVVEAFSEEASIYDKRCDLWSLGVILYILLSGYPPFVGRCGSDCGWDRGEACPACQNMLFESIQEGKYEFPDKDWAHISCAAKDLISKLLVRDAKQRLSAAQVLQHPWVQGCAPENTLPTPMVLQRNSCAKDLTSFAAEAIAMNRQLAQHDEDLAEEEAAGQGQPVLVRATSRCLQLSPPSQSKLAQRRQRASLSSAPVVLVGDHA
D(3) dopamine receptor (Homo sapiens), sequence (P35462 whole entry): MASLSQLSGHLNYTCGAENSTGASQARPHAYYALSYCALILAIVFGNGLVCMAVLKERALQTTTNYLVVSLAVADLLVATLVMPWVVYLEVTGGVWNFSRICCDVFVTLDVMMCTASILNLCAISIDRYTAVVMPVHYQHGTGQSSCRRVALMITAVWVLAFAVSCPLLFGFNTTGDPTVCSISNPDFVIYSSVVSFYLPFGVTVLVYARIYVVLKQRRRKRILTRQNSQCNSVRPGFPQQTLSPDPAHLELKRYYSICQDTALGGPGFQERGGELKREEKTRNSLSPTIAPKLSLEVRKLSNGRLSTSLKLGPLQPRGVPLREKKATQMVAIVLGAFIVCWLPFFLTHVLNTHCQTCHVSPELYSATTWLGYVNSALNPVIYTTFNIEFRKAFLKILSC
Cyclin-dependent kinase 5 (Homo sapiens), sequence (Q00535 whole entry, looked up): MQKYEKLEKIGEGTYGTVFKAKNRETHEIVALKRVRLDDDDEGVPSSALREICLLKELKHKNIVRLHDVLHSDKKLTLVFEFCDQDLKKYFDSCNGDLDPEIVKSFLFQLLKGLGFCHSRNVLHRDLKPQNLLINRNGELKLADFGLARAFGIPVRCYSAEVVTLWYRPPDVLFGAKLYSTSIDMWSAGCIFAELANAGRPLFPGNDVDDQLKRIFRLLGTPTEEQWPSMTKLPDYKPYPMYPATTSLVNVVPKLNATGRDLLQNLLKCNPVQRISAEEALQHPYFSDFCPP
Sigma intracellular receptor 2, sequence (Q5BJF2 whole entry): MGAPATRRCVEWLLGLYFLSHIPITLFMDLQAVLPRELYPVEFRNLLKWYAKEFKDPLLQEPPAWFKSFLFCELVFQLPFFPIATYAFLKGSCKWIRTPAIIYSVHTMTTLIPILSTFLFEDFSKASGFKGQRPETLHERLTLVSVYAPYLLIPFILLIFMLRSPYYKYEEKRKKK

O=C(N1CCS(=O)(=O)CC1)N1C[C@H](c2ccc(OC(F)(F)F)cc2)C[C@H](c2nc(C3CC3)no2)C1 [BAY-386]
4%: % of Control Agonist Response (Mean n=2) [13]
-1.7%: % of Control Agonist Response (Mean n=2) [33]
-31.6%: % Inhibition of Control Agonist Response (Mean n=2) [5]
inactive: residual activity [1] 100% | residual activity [2] 77% | residual activity [3] 100% | residual activity [4] 100% | residual activity [6] 100% | residual activity [7] 94% | residual activity [8] 99% | residual activity [9] 100% | residual activity [10] 100% | residual activity [11] 100% | residual activity [12] 98% | residual activity [14] 100% | residual activity [15] 98% | residual activity [16] 100% | residual activity [17] 89% | residual activity [18] 100% | inhibition [19] 5.09% | residual activity [20] 83% | residual activity [21] 100% | residual activity [22] 88% | residual activity [23] 100% | residual activity [24] 98% | residual activity [26] 85% | residual activity [27] 100% | residual activity [28] 100% | residual activity [29] 100% | residual activity [30] 100% | residual activity [31] 100% | residual activity [32] 100% | residual activity [34] 100% | residual activity [35] 100% | residual activity [36] 100% | residual activity [37] 100% | residual activity [38] 100% | residual activity [39] 100% | residual activity [40] 100% | residual activity [41] 100% | residual activity [42] 75% | residual activity [43] 89% | inhibition [44] 2.78%
active: inhibition [25] 67.7%
-6.9%: % Inhibition of Control Agonist Response (Mean n=2) [33]
-1.4%: % of Control Agonist Response (Mean n=2) [5]
6.6%: % Inhibition of Control Agonist Response (Mean n=2) [13]

Cc1noc([C@H]2C[C@@H](c3ccc(C(F)(F)F)cc3)CN(C(=O)N3CCS(=O)(=O)C3)C2)n1 [BAY-448]
8.6%: % Inhibition of Control Agonist Response (Mean n=2) [13]
10.2%: % Inhibition of Control Agonist Response (Mean n=2) [33]
inactive: residual activity [1] 100% | residual activity [2] 83% | residual activity [3] 100% | residual activity [4] 86% | residual activity [6] 100% | residual activity [7] 100% | residual activity [8] 96% | residual activity [9] 100% | residual activity [10] 100% | residual activity [11] 86% | residual activity [12] 88% | residual activity [14] 92% | residual activity [15] 100% | residual activity [16] 100% | residual activity [17] 100% | residual activity [18] 100% | inhibition [19] -2.97% | residual activity [20] 100% | residual activity [21] 100% | residual activity [22] 71% | residual activity [23] 100% | residual activity [24] 100% | inhibition [25] 42.4% | residual activity [26] 100% | residual activity [27] 82% | residual activity [28] 66% | residual activity [29] 97% | residual activity [30] 100% | residual activity [31] 64% | residual activity [32] 100% | residual activity [34] 100% | residual activity [35] 100% | residual activity [36] 100% | residual activity [37] 100% | residual activity [38] 100% | residual activity [39] 91% | residual activity [40] 74% | residual activity [41] 100% | residual activity [42] 100% | residual activity [43] 100% | inhibition [44] 27.7%
3.1%: % of Control Agonist Response (Mean n=2) [13]
-1.2%: % of Control Agonist Response (Mean n=2) [5]
2.3%: % of Control Agonist Response (Mean n=2) [33]
13.9%: % Inhibition of Control Agonist Response (Mean n=2) [5]
